Measured values: paper PMC4363092 (Journal of medicinal chemistry, 2014)

Experiments:
[1] = target: P2Y1 receptor (Homo sapiens, UniProt P47900); assay: [Ca2+]i elevation in 1321N1 astrocytoma cells expressing GFP-P2Y1 receptor; assay type: cell-based; conditions: EC50 of the nucleotide in relation to the EC50 of ATP
[2] = target: T1, TNAP (Homo sapiens, UniProt P05186); assay: TNAP stability assay: hydrolysis by TNAP; assay type: in vitro ADME; conditions: 1 h, pH 9, 100 μM (data not shown)
T1 sequence (P05186 18-502 limits assumed): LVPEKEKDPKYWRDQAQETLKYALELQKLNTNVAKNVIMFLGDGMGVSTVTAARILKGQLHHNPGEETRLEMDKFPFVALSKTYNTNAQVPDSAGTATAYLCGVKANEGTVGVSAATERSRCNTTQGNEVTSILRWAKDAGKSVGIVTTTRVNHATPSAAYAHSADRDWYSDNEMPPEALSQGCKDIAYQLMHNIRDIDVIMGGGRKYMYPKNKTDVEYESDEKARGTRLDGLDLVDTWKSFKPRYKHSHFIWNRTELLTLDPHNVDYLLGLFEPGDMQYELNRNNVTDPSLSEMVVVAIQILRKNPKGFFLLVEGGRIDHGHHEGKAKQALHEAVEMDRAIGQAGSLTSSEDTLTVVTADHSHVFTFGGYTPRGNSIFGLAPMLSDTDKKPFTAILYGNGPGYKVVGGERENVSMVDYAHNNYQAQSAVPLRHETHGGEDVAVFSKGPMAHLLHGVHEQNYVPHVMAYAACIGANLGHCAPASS

Sequence of P2Y1 receptor (P47900 whole entry): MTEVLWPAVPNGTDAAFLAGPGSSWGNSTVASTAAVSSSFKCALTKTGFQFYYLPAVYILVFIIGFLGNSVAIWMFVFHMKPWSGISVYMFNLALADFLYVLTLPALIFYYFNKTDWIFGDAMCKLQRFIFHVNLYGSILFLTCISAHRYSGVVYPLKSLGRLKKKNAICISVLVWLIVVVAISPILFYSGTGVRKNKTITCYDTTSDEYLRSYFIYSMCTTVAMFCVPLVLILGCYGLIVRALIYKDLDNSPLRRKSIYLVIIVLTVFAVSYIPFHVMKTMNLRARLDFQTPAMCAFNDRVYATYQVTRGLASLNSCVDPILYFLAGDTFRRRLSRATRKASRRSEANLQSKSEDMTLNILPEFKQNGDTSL

For Nc1ncnc2c1ncn2[C@@H]1O[C@H](COP(=O)(O)OP(=O)(O)OP(=O)(O)O)[C@@H](O)[C@H]1O [ATP, reference compound], the “increase in efficacy vs ATP, P2Y1” value [1] was 1 and the “hydrolysis by TNAP” value [2] was 100%.
